Target: RheoSwitch® (CHO-K1_RS-1 cells, firefly Luciferase reporter) (Choristoneura fumiferana, UniProt O77240)
Assay: in vitro gene switch assay (fLUC Luciferase expression, potency screen)
Assay type: cell-based
Conditions: read-out: fLUC assay EC50, 24 hours with compound, 25 μM to 2.5 pM, figure in parentheses after a value not defined
From the text: Gene switch assays are disclosed, e.g., in U.S. Pat. Nos. 8,076,517; 7,456,315; 7,304,161; and 6,258,603.
CHO-K1 cells were stably transfected with a plasmid (RS-1, FIG. 1) coding for firefly Luciferase (fLUC) under the control of the RheoSwitch® resulting in the stable cell line CHO-K1_RS-1. A master cell bank was created containing approximately 100 vials at 5×10^6 cells per vial. One vial of CHO-K1_RS-1 was thawed and cultured for two weeks prior to each in vitro potency screening.
Twenty-four (24) hours prior to treatment with the control and test compounds the CHO-K1_RS-1 cells were seeded into white-opaque 384-well cell culture plates at 3,600 cells per well in 30 μl of culture medium. The cells were incubated in a humidified CO2 incubator at 37° C. until compound treatment.
Compounds were prepared at 25 mM in 100% dry DMSO and stored at room temperature in sealed 1 ml tubes prior to subsequent dilution and assay. On the day of cell treatment the tubes containing the control and test compounds were sorted and the ligands transferred to a 96-well polypropylene plate for subsequent dilution. The compounds were diluted in 100% dry DMSO in an 8-point, 10-fold dilution series ranging from 25 mM to 2.5 nM using the Biomek FX automated liquid handler.
The diluted compounds were then transferred to each well of 384-well polypropylene plate in quadruplicate resulting in a single 384-well plate with four replicates of each compound dilution in a different quadrant of the plate. Each well on the 384-well plate received 20 μl of diluted compound. The 384-well plates containing diluted compound and the plates containing cells in culture were loaded onto the Biomek FX and 30 nl of compound was delivered to each well containing cells using a 384-pin V&P Scientific Pin Tool. The resulting 1000-fold dilution (30 nl to 30 μl) generated a final dosing range of 25 μM to 2.5 pM in 0.1% DMSO. Two replicate plates were produced to supply a dedicated plate for the Luciferase expression assay and the APH cell viability assay.
The cells were incubated with the compound for 24 hours in a humidified CO2 incubator at 37° C. Following incubation, the cells were assayed for Luciferase expression (fLUC assay) using the Steady Glo assay from Promega. Cells were equilibrated to room temperature for 15 minutes prior to reagent addition. Thirty micro liters (30 μl) of assay reagent was added to each well of the 384-well plate using the Biomek FX. The reagent was incubated with the cells for 10-120 minutes prior to reading on a Molecular Devices Spectramax L luminometer. The assay reagents were prepared as per the manufacturer's instructions.
The Luciferase expression data was normalized to the baseline signal from cells treated with DMSO alone. The ratio of signal from treated cells to vehicle-treated cells was plotted and non-linear regress was performed using Graph Pad Prism software. EC50, (log)EC50 and Hill slope data was generated. Reporter gene expression, e.g., luciferase expression, serves as a proxy for the expression of a gene of interest. See, e.g., US 2009/0123441 and WO 2011/119773.

RheoSwitch® (CHO-K1_RS-1 cells, firefly Luciferase reporter), sequence (O77240 1-513): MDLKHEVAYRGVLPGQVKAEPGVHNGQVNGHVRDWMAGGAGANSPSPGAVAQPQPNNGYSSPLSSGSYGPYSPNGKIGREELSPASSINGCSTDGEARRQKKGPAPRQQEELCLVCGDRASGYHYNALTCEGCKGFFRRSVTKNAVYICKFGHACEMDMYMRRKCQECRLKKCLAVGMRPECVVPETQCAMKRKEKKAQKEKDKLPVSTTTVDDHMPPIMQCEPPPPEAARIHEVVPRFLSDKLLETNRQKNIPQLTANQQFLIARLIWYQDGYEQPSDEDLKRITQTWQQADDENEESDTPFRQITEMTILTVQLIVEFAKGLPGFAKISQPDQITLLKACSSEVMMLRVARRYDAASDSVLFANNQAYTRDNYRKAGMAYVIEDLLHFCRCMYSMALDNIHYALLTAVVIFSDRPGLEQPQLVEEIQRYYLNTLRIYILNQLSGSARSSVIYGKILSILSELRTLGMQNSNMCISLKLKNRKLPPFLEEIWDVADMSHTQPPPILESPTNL

Structure (SMILES)	EC50 [nM]
CCC(N(NC(=O)c1ccc2c(c1)B(O)OC2)C(=O)c1cc(C)cc(C)c1)C(C)(C)C (racemic) [Cpd. No. 51]	432
CCC(CF)N(NC(=O)c1ccc2c(c1C)OCCOB2O)C(=O)c1cc(C)cc(C)c1 (racemic) [Cpd. No. 82]	2610
Cc1cc(C)cc(C(=O)N(NC(=O)c2ccc3c(c2C)OCCOB3O)C(c2ccccc2)C(C)(C)C)c1 (racemic) [Cpd. No. 83, N′-(2,2-dimethyl-1-phenylpropyl)-N′-(3,5-dimethylbenzoyl)-1-hydroxy-6-methyl-3,4-dihydro-1H-benzo[c][1,5,2]dioxaborepine-7-carbohydrazide]	65.9
CCC(c1ccccc1)N(NC(=O)c1ccc(B(O)O)cc1F)C(=O)c1cc(C)cc(C)c1 (racemic) [compound 18]	203
CCC(c1ccccc1)N(NC(=O)c1ccc(B(O)O)cc1F)C(=O)c1cc(C)cc(C)c1 (racemic) [compound 19]	258
CCC(N(NC(=O)c1cccc(OC)c1C)C(=O)c1cccc(B(O)O)c1)C(C)(C)C (racemic) [compound 32]	2880
CCC(N(NC(=O)c1cccc(OC)c1C)C(=O)c1cc(F)cc(B(O)O)c1)C(C)(C)C (racemic) [compound 35]	2600
CCC(N(NC(=O)c1cccc(OC)c1C)C(=O)c1cc(B(O)O)cc([N+](=O)[O-])c1)C(C)(C)C (racemic) [compound 36]	> 25000
CCC(N(NC(=O)c1cccc(OC)c1C)C(=O)c1cc(OC)cc(B(O)O)c1)C(C)(C)C (racemic) [compound 37]	2110
CCCC(N(NC(=O)c1cccc(B2OC(C)(C)C(C)(C)O2)c1C)C(=O)c1cccc(B2OC(C)(C)C(C)(C)O2)c1C)C(C)(C)C (racemic) [compound 41]	~14000
CCCC(N(NC(=O)c1cccc(B2OC(C)(C)C(C)(C)O2)c1C)C(=O)c1cc(C)cc(C)c1)C(C)(C)C (racemic) [compound 44]	250
CCC(N(NC(=O)c1cccc(B2OC(C)(C)C(C)(C)O2)c1C)C(=O)c1cc(OC)c(C)c(OC)c1)C(C)(C)C (racemic) [compound 47]	1640
CCCC(N(NC(=O)c1cccc(B2OC(C)(C)C(C)(C)O2)c1C)C(=O)c1cc(OC)ccc1OC)C(C)(C)C (racemic) [compound 48]	22200
Cc1cc(C)cc(C(=O)N(NC(=O)c2cccc(B(O)O)c2Cl)C(C)(C)C)c1 [Cpd. No. 3]	1660
CCC[C@@H](N(NC(=O)c1cccc(B(O)O)c1F)C(=O)c1cc(C)cc(C)c1)C(C)(C)C [Cpd. No. 6]	92.7
Cc1cc(C)cc(C(=O)N(NC(=O)c2ccc(B(O)O)cc2)C(C)(C)C)c1 [Cpd. No. 7]	1010
CCC[C@@H](N(NC(=O)c1ccc(B(O)O)cc1)C(=O)c1cc(C)cc(C)c1)C(C)(C)C [Cpd. No. 8]	103
Cc1cc(C)cc(C(=O)N(NC(=O)c2ccc(B(O)O)c(F)c2)C(C)(C)C)c1 [Cpd. No. 23, (4-(2-(tert-butyl)-2-(3,5-dimethylbenzoyl) hydrazinecarbonyl)-2-fluorophenyl)boronic acid]	1800
CCC[C@@H](N(NC(=O)c1c(F)cc(B(O)O)cc1F)C(=O)c1cc(C)cc(C)c1)C(C)(C)C [Cpd. No. 24, (R)-(4-(2-(3,5-dimethylbenzoyl)-2-(2,2-dimethylhexan-3-yl)hydrazinecarbonyl)-3,5-difluorophenyl)boronic acid]	85.7
Cc1cc(C)cc(C(=O)N(NC(=O)c2c(F)cc(B(O)O)cc2F)C(C)(C)C)c1 [Cpd. No. 25, (4-(2-(tert-butyl)-2-(3,5-dimethylbenzoyl) hydrazinecarbonyl)-3,5-difluorophenyl)boronic acid]	796
CC[C@@H](N(NC(=O)c1ccc(B(O)O)c(OCCOC)c1C)C(=O)c1cc(C)cc(C)c1)C(C)(C)C [Cpd. No. 26, (R)-(4-(2-(3,5-dimethylbenzoyl)-2-(2,2-dimethylpentan-3-yl)hydrazinecarbonyl)-2-(2-methoxyethoxy)-3-methylphenyl)boronic acid]	1670
CCC[C@@H](N(NC(=O)c1ccc(CCCB(O)O)c(OC)c1C)C(=O)c1cc(C)cc(C)c1)C(C)(C)C [Cpd. No. 27, (R)-(3-(4-(2-(3,5-dimethylbenzoyl)-2-(2,2-dimethylhexan-3-yl)hydrazinecarbonyl)-2-methoxy-3-methyl-phenyl)propyl)boronic acid]	270
CCC[C@@H](N(NC(=O)c1ccc(CCCB(O)O)c(OC(F)F)c1C)C(=O)c1cc(C)cc(C)c1)C(C)(C)C [Cpd. No. 28]	57.7
CC[C@@H](N(NC(=O)c1cccc(OC)c1C)C(=O)c1cc(C)cc(B(O)O)c1)C(C)(C)C [Cpd. No. 33, (R)-(3-(1-(2,2-dimethylpentan-3-yl)-2-(3-methoxy-2-methylbenzoyl)hydrazinecarbonyl)-5-methylphenyl)boronic acid]	191
CCCCB1OCc2ccc(C(=O)NN(C(=O)c3ccccc3)C(C)(C)C)c(F)c21 [Cpd. No. 64, N′-benzoyl-N′-(tert-butyl)-1-butyl-7-fluoro-1,3-dihydrobenzo[c][1,2]oxaborole-6-carbohydrazide]	> 25000
Cc1cc(C)cc(C(=O)N(NC(=O)c2ccc3c(c2F)COB3O)C(C)(C)C)c1 [Cpd. No. 65, N′-(tert-butyl)-N′-(3,5-dimethylbenzoyl)-4-fluoro-1-hydroxy-1,3-dihydrobenzo[c][1,2]oxaborole-5-carbohydrazide]	3180
[2H]C([2H])([2H])c1cc(C(=O)N(NC(=O)c2ccc3c(c2F)COB3O)C(C)(C)C)cc(C([2H])([2H])[2H])c1 [Cpd. No. 66, N′-(3,5-bis(methyl-d3)benzoyl)-N′-(tert-butyl)-4-fluoro-1-hydroxy-1,3-dihydrobenzo[c][1,2]oxaborole-5-carbohydrazide]	3270
Cc1cc(C)cc(C(=O)N(NC(=O)c2ccc3c(c2C)OB(O)CCC3)C(C)(C)C)c1 [Cpd. No. 69]	203
CCC[C@@H](N(NC(=O)c1ccc2c(c1C)OB(O)CCC2)C(=O)c1cc(C)cc(C)c1)C(C)(C)C [Cpd. No. 70, (R)—N′-(3,5-dimethylbenzoyl)-N′-(2,2-dimethylhexan-3-yl)-2-hydroxy-9-methyl-2,3,4,5-tetrahydrobenzo[f][1,2]oxaborepine-8-carbohydrazide]	40.6

Same assay, conditions: read-out: fLUC assay EC50 Run 1, 24 hours with compound, Run 1

Structure (SMILES)	EC50 [nM]
CC[C@@H](N(NC(=O)c1ccc(B(O)O)cc1F)C(=O)c1cc(C)cc(C)c1)C(C)(C)C [Cpd. No. 85, (R)-(4-(2-(3,5-dimethylbenzoyl)-2-(2,2-dimethylpentan-3-yl)hydrazine-1-carbonyl)-3-fluorophenyl)boronic acid]	69.4
CC[C@@H](N(NC(=O)c1ccc(COC)c(B(O)O)c1F)C(=O)c1cc(C)cc(C)c1)C(C)(C)C [Cpd. No. 86, (R)-(3-(2-(3,5-dimethylbenzoyl)-2-(2,2-dimethylpentan-3-yl)hydrazine-1-carbonyl)-2-fluoro-6-(methoxymethyl)phenyl)boronic acid]	48.8
CC[C@@H](N(NC(=O)c1ccc(COC)c(B2OC(C)(C)C(C)(C)O2)c1F)C(=O)c1cc(C)cc(C)c1)C(C)(C)C [Cpd. No. 87, (R)-N′-(3,5-dimethylbenzoyl)-N′-(2,2 dimethylpentan-3-yl)-2-fluoro-4-(methoxymethyl)-3-(4,4,5,5-tetramethyl-1,3,2-dioxaborolan-2-yl)benzohydrazide]	47.6
COCc1ccc(C(=O)NN(C(=O)c2cc(C)cc(C)c2)C(C)(C)C)c(F)c1B(O)O [Cpd. No. 88, (3-(2-(tert-butyl)-2-(3,5-dimethylbenzoyl)hydrazine-1-carbonyl)-2-fluoro-6-(methoxymethyl)phenyl)boronic acid]	667
Cc1cc(C)cc(C(=O)N(NC(=O)c2ccc3c(c2F)COB3O)C(c2ccccc2)C(C)(C)C)c1 (stereo not drawn) [Cpd. No. 89, N′-(2,2-dimethyl-1-phenylpropyl)-N′-(3,5-dimethylbenzoyl)-4-fluoro-1-hydroxy-1,3-dihydrobenzo[c][1,2]oxaborole-5-carbohydrazide]	~362

Same assay, conditions: read-out: fLUC assay EC50 Run 2, 24 hours with compound, Run 2

Structure (SMILES)	EC50 [nM]
CC[C@@H](N(NC(=O)c1ccc(B(O)O)cc1F)C(=O)c1cc(C)cc(C)c1)C(C)(C)C [Cpd. No. 85, (R)-(4-(2-(3,5-dimethylbenzoyl)-2-(2,2-dimethylpentan-3-yl)hydrazine-1-carbonyl)-3-fluorophenyl)boronic acid]	66.6
CC[C@@H](N(NC(=O)c1ccc(COC)c(B(O)O)c1F)C(=O)c1cc(C)cc(C)c1)C(C)(C)C [Cpd. No. 86, (R)-(3-(2-(3,5-dimethylbenzoyl)-2-(2,2-dimethylpentan-3-yl)hydrazine-1-carbonyl)-2-fluoro-6-(methoxymethyl)phenyl)boronic acid]	74.5
CC[C@@H](N(NC(=O)c1ccc(COC)c(B2OC(C)(C)C(C)(C)O2)c1F)C(=O)c1cc(C)cc(C)c1)C(C)(C)C [Cpd. No. 87, (R)-N′-(3,5-dimethylbenzoyl)-N′-(2,2 dimethylpentan-3-yl)-2-fluoro-4-(methoxymethyl)-3-(4,4,5,5-tetramethyl-1,3,2-dioxaborolan-2-yl)benzohydrazide]	96.4
COCc1ccc(C(=O)NN(C(=O)c2cc(C)cc(C)c2)C(C)(C)C)c(F)c1B(O)O [Cpd. No. 88, (3-(2-(tert-butyl)-2-(3,5-dimethylbenzoyl)hydrazine-1-carbonyl)-2-fluoro-6-(methoxymethyl)phenyl)boronic acid]	840
Cc1cc(C)cc(C(=O)N(NC(=O)c2ccc3c(c2F)COB3O)C(c2ccccc2)C(C)(C)C)c1 (stereo not drawn) [Cpd. No. 89, N′-(2,2-dimethyl-1-phenylpropyl)-N′-(3,5-dimethylbenzoyl)-4-fluoro-1-hydroxy-1,3-dihydrobenzo[c][1,2]oxaborole-5-carbohydrazide]	~303
